# US12152060B2, “Interleukin-2 variants and methods of uses thereof” (Cugene Inc, priority 2018, dated 2024)
# Assays:
# [1] = test system: Treg cells, CD4+ Tconv, CD8 T and NK cells in blood; assay: Dose-response pharmacodynamics study in mice following a single injection; type: in vivo, mouse
# Description: Following a single subcutaneous administration of vehicle (PBS) or P-0511 (1, 0.3, 0.1, or 0.03 mg/kg) to female Balb/C mice (n=5/group), peripheral blood was collected on day-2 as baseline, and post dose on days 3, 5, and 7. On day 7, mice were sacrificed, and spleens were harvested. Blood lymphocyte phenotyping, proliferation and expansion were measured by flow cytometry at each timepoint using fresh whole blood.
# [2] = test system: regulatory T cells (CD4+CD25+FoxP3+ T cells), effector T cells and NK cells; assay: Treg versus effector T and NK cell proliferation and expansion in mice after a single subcutaneous injection; type: in vivo, mouse; conditions: 0.3 mg/kg s.c. single dose, C57/BL6 mice
# Description: IL-2 variant Fc fusion proteins were administered to mice and their ability to preferentially proliferate and expand regulatory T cells (CD4+CD25+FoxP3+ T cells) over effector T cells and NK cells were determined in vivo.
# Female C57/BL6 mice (7-week old) were received from Charles River Laboratory and acclimated in house for at least 7 days before the study. Vehicle (PBS), 0.3 mg/kg of each test compounds, or IL-2 benchmark compounds were subcutaneously administered to mice on day 0. Peripheral blood samples were collected into heparin-treated tubes on days 3, 5 and 7 post-treatment. Each group contained 6 mice and baseline blood was collected 2 days prior to the treatment (day-2). After red blood cell lysis, total viable mononuclear blood cells were counted by trypan blue dead cell exclusion method and proceeded to intracellular staining for immune cell phenotype and Ki67 proliferation markers using flow cytometric analysis. Cells were stained separately with two panels of antibodies as listed: 1) anti-mouse Foxp3-FITC, Ki67-PE, anti-mouse CD25-APC and anti-mouse CD4-Percpcy5.5 (1:50 dilution) for CD4+T-regulatory cells (Treg); 2) anti-mouse CD3-FITC, Ki67-PE, anti-mouse CD335-APC and anti-mouse CD8-Percpcy5.5 (1:50 dilution) for CD8+T and NK cells.
# [3] = test system: delayed-type hypersensitivity (DTH) mouse model; assay: KLH-induced delayed-type hypersensitivity (DTH) mouse model, ear thickness; type: in vivo; conditions: for inhibition of ear inflammation (KLH-induced DTH), separate study: Q5D
# Description: The ability of Treg cells induced by IL-2 variants to suppress T cell antigen-driven inflammation in vivo was assessed in a model of delayed-type hypersensitivity (DTH). Female Balb/C mice (7-week old) were acclimated in house for 7 days and randomized into groups. Subcutaneous administration of vehicle (PBS), P-0511 at either 0.1 mg/kg or 0.3 mg/kg was initiated on day-2 and was given either once every 3 days (Q3D) for three injections or once every 5 days (Q5D) for two injections. Mice were then sensitized with a subcutaneous administration of 100 μg keyhole limpet hemocyanin (KLH) in 200 μl saline on day 0. For Q3D dosing, two more subcutaneous injections of PBS or P-0511 (0.1 or 0.3 mg/kg) were administered on days 1 and 4; for Q5D dosing, one additional s.c. injection of PBS, 0.1 or 0.3 mg/kg P-0511 was administered on day 3. Mice received an intradermal challenge of KLH (5 μg in 10 μl saline) in right ear on day 5. Right ear thickness was measured using a caliper on day 5 prior KLH challenge and daily from day 6 to day 8 corresponding to 24 h, 48h, and 72 h post KLH challenge. One group of mice also received 5 mg/kg daily i.p. treatment of dexamethasone from day 5 to day 8 as a positive control.
# Kinetics of the DTH response using the change in ear thickness relative to baseline values (Δ ear thickness) at various times after KLH challenge was illustrated in FIG. 23.
# In a separate study, dose-dependent response of P-0511 (0.1, 0.3 and 1 mg/kg, Q5D) on suppression of KLH-induced DTH was determined and compared with Benchmark-1 (0.3 mg/kg, Q5D).
# [4] = test system: STAT5 phosphorylation in CD4+/Foxp3+/CD25+ Treg, CD4+/Foxp3-/CD25+ CD4 effector and CD4+/Foxp3-/CD25- CD4 naive T cell subsets; assay: STAT5 phosphorylation in three CD4+ T cell subsets, human PBMC; type: cell-based; conditions: FIG. 9
# Description: After human PBMC Cells were treated with serial dilutions of test compounds, fixed and permeabilized, washed, and stained with a mixture of anti-CD25-PE, anti-FOXP3-APC, anti-pSTAT5-FITC, and anti-CD4-PerCP-Cy5.5 antibodies, the flow cytometry analysis was gated into CD4+/Foxp3+/CD25+, CD4+/Foxp3−/CD25+, CD4+/Foxp3−/CD25− groups for the Treg, CD4 effector, and CD4 naive T cell subsets, respectively. Data are expressed as a percent of pSTAT5 positive cells in gated population and illustrated in FIG. 9.
# Treg cells in blood = assay: Pharmacodynamics study in mice following repeated administration (Q3D); type: in vivo, mouse; conditions: 0.3 mg/kg s.c. Q3D x3; compared to P-0531 and Benchmark-1
# Description: Female Balb/C mice (7-week old) were acclimated in house for 5-7 days before the study. Vehicle (PBS), 0.3 mg/kg of P-0511, P-0512, P-0531, or Benchmark-1 compound were subcutaneously administered to mice (n=5/group) on days 0, 3, and 6. On days 3 and 9, three days after the first injection and multiple (3) injections, respectively, peripheral blood was collected. Based on earlier in vivo experiments, Treg cell activation, proliferation, and expansion were expected to peak on day 3, and thus three days post injection was selected for data collection and analysis. Changes in blood lymphocyte activation, proliferation, and expansion were measured by flow cytometry. P-0531 is the S125I equivalent of the wild type IL-2 fusion protein. The Benchmark-1 contains V91K mutation.
substance,measurement,setting,value
P-0511: Fc fusion protein of IL-2 variant L19H/S125I/Q126E; SEQ ID NO: 198,"Treg/Tconv ratio, peak (based on cell count)",[1]; 0.1 mg/kg single dose,0.06
same,"Treg/Tconv ratio, peak (based on cell count)",[1]; 0.3 mg/kg single dose,0.18
same,"Treg/Tconv ratio, peak (based on cell count)",[1]; 1 mg/kg single dose,0.27
same,"percentages of CD4+ Tconv, CD8 Teff or NK cells over the total lymphocytes",[1]; 0.03-1 mg/kg single dose,no statistically significant changes
same,Ki67 stimulation on CD8 T cells and NK cells,[2],mild Ki67 stimulation
same,"expansion of CD4+ Tconv cells, CD8 T cells or NK cells",[2],No significant expansion
same,"Treg cell proliferation and expansion (Ki67 positive Treg, % Treg over CD4+ T cells or lymphocytes)","[2]; days 3, 5, 7",stronger in vivo efficacy
same,suppression of antigen-driven inflammation (Δ ear thickness),"[3]; 0.1 mg/kg s.c., Q3D and Q5D",did not reach statistical significance
same,"inhibition of ear inflammation (KLH-induced DTH), separate study",[3]; 0.1 mg/kg,mild
same,suppression of antigen-driven inflammation (Δ ear thickness),"[3]; 0.3 mg/kg s.c., Q3D or Q5D, all time points post KLH challenge",evident
same,"inhibition of ear inflammation (KLH-induced DTH), separate study",[3]; 0.3 mg/kg,Intermediate
same,"inhibition of ear inflammation (KLH-induced DTH), separate study",[3]; 1 mg/kg,strong resistance to KLH-induced DTH
same,"pSTAT5 potency and selectivity in Treg, Teff and naive CD4 T cell subsets (in words)",[4],preferential activation of Treg over Teff
same,"pSTAT5 potency and selectivity in Treg, Teff and naive CD4 T cell subsets (in words)",[4]; listed as P-511,superior to both Benchmark-2 and -3
same,"Treg cell counts, fold changes relative to PBS and Treg/Tconv ratio",Treg cells in blood,superior capabilities to sustain Treg pool
